Assay results reported in paper PMC6270778, “Novel Cinnamic Acid Derivatives as Antioxidant and Anticancer Agents: Design, Synthesis and Modeling Studies” (Molecules, 2014).

Experiments:
[1] = Inhibition of linoleic acid peroxidation (AAPH); settings: 0.1 mM
Source text: For the in vitro study of the free radical production, azo compounds generating free radicals through spontaneous thermal decomposition are used. The water soluble 2,2'-azobis(2-amidinopropane) hydrochloride (AAPH) is recommended as appropriate for measuring radical-scavenging activity in vitro. The activity of the peroxyl radicals produced by the action of AAPH greatly resembles to cellular activities such as lipid peroxidation. The phenyl substituted acids presented remarkable activity at 0.1 mM concentration (84%–92%) compared to the non-substituted derivatives (20%–63%).
For initiating the free radical, 2,2'-azobis(2-amidinopropane) dihydrochloride (AAPH) is used. The final solution in the UV cuvette consisted of ten microliters of the 16 mM linoleate sodium dispersion 0.93 mL of 0.05 M phosphate buffer, pH 7.4, thermostatted at 37 °C. 50 μL of 40 mM AAPH solution was added as a free radical initiator at 37 °C under air and 10 μL of the tested compounds. The oxidation of linoleic acid sodium salt results a conjugated diene hydroperoxide. The reaction is monitored at 234 nm (Table 3).

[2] = Interaction with the stable radical DPPH
Description: The novel acids were studied for the antioxidant activity by the use of the sTable 2,2-diphenyl-1-picrylhydrazyl radical (DPPH) at concentrations 0.05 and 0.1 mM after 20 and 60 min (Table 2). In the DPPH assay, the dominant chemical reaction involved is the reduction of the DPPH radical by single electron transfer SET from the antioxidant. Phenolic compounds eg. […] The compounds presented reducing abilities which ranged nearly 29% (4ii), small differences were found among the compounds with time and concentration. […] Due to steric reasons the interaction of DPPH with the tested compounds is low.
To a solution of DPPH in absolute ethanol the appropriate volume of the compounds (0.05 and 0.1 mM final concentrations) dissolved in DMSO was added. The absorbance was recorded at 517 nm after 20 and 60 min at room temperature (Table 3).

[3] = tested on: MRC-5 normal cells; experiment: SRB cytotoxicity assay, MRC-5 normal cells; format: cell-based; settings: Homo sapiens, MRC5, 50% growth inhibition, 48 h exposure
Description: Thus, we conducted in vitro studies in two colon cancer cell lines (HT-29 and HCT-15) reported time and dose-dependent stimulation of cell proliferation by LTB4 and 12-HETE [46]. The synthesized acids have been tested in five different human tumour cell lines: HT-29 (colon), A-549 (lung), OAW-42 (ovarian), MDA-MB-231 (breast), HeLa (immortal cells from cervical cancer) and MRC-5 normal cells.
(§1) Cell passages were carried out by detaching adherent, logarithmically growing cells after addition of 2–3 mL of a mixture of 0.05% solution of trypsin (Gibco, 1:250) in phosphate-buffered saline (PBS) with 0.02% EDTA and incubation for 3–5 min at 37 °C. For the experiments, cells were plated (100 μL containing 10,000 cells/well) in 96-well flat-bottom microplates microplates (Costar-Corning, Acton, MA 01720, USA) so that untreated cells were in exponential growth phase at the time of cytotoxicity evaluation. Cells were left for 24 h at 37 °C to resume exponential growth and stabilization and afterwards exposed to tested agents for 48 h by the addition of an equal volume (100 μL) of either complete culture medium (control wells), or twice the final drug concentrations diluted in complete culture medium (test wells). Drug cytotoxicity was measured by means of the SRB colorimetric assay estimating the survival fractions (SF) as the percent of control (untreated cells) absorbance. The SRB assay was carried out as previously described and modified by our group. In brief, culture medium was aspirated prior to fixation using a microplate-multiwash device (Tri-Continent Scientific, Inc., Grass Valley, CA, USA) and 50 μL of 10% cold (4 °C) trichloroacetic acid (TCA) were gently added to the wells. Microplates were left for 30 min at 4 °C, washed five times with deionized water and left to dry at room temperature for at least 24 h. Subsequently, 70 μL of 0.4% (w/v) sulforhodamine B (Sigma) in 1% acetic acid solution were added to each well and left at room temperature for 20 min. SRB was removed and the plates were washed five times with 1% acetic acid before air drying. Bound SRB was solubilized with 200 μL of 10 mM unbuffered Tris-base solution and plates were left on a plate shaker for at least 10 min. Absorbance was read in a 96-well plate reader at 492 nm subtracting the background measurement at 620 nm. The test optical density (OD) value was defined as the absorbance of each individual well, minus the blank value (“blank” is the mean optical density of the background control wells, n = 8). Mean values and the coefficient of variation (CV) from six replicate wells were calculated automatically. Results were expressed as the “survival fraction” (SF), as shown below.
(§2) For each tested compound a dose-effect curve was produced. Sextuplicate determinations gave a CV (Standard Deviation/mean %) of much less than 10%, resulting in standard error (SE) which was very low in all cases. The data showing inhibition of cellular growth are expressed as the fraction of cells that remains unaffected (fu) (survival fraction, SF), which is derived from the following equation: fu = ODx/ODc where ODx and ODc represent the test and the control optical density, respectively.

[4] = tested on: A-549 (lung); experiment: SRB cytotoxicity assay, A-549; format: cell-based; settings: Homo sapiens, A549, 50% growth inhibition, 48 h exposure
Description: Human cancer cell lines used as targets were HT-29 (colon), A-549 (lung), OAW-42 (ovarian), MDA-MB-231 (breast), HeLa (immortal cells from cervical cancer). All cells were obtained from the American Type Culture Collection (ATCC). Cells were routinely grown as monolayer cell cultures in T-75 flasks (Costar) in an atmosphere containing 5% CO2 in air and 100% relative humidity at 37 °C and subcultured twice a week, restricting the total number of cell passages below 20. The culture medium used was Dulbecco’s modified Eagle’s medium (DMEM, Gibco, Grand Island, NY, USA) supplemented with 10% fetal bovine serum (Gibco), 2 mM glutamine (Sigma), 100 μg/mL streptomycin and 100 IU/mL penicillin.
as §1, §2

Structure (SMILES)	AAPH (%) (±SD), inhibition of linoleic acid peroxidation [1]	RA % (±SD), DPPH ([2]; 0.05 mM, 20 min)	RA % (±SD), DPPH ([2]; 0.05 mM, 60 min)	RA % (±SD), DPPH ([2]; 0.1 mM, 20 min)	RA % (±SD), DPPH ([2]; 0.1 mM, 60 min)	IC50 [3]	IC50 [4]	melting point
N#Cc1ccc(C=C(C(=O)O)c2ccccc2)cc1 [Compound 1i, 3-(4-Cyanophenyl)-2-phenylacrylic acid]	92 ± 1.2%	12 ± 0.3%	14 ± 0.1%	28 ± 0.6%	20 ± 0.8%	222 ± 1.3 µM	> 240 µM	155 to 157 °C
N#Cc1ccc(C=CC(=O)O)cc1 [Compound 1ii, 3-(4-Cyanophenyl)acrylic acid]	20 ± 0.1%	13 ± 0.3%	9 ± 0.03%	23 ± 0.5%	21 ± 1.0%	> 240 µM	> 240 µM	258 to 260 °C
O=C(O)C(=CC=Cc1ccc([N+](=O)[O-])cc1)c1ccccc1 [Compound 2i, 5-(4-Nitrophenyl)-2-phenylpenta-2,4-dienoic acid]	89 ± 0.9%	10 ± 0.04%	11 ± 0.02%	23 ± 0.7%	23 ± 0.9%	96.3 ± 1.1 µM	134 ± 1.6 µM	163 to 165 °C
O=C(O)C=CC=Cc1ccc([N+](=O)[O-])cc1 [Compound 2ii, 5-(4-Nitrophenyl)penta-2,4-dienoic acid]	29 ± 0.7%	–	13 ± 0.04%	29 ± 1.0%	24 ± 0.6%	240 ± 1 µM	> 240 µM	170 to 172 °C
O=C(O)C(=CC=Cc1ccccc1)c1ccccc1 [Compound 3i, 2,5-Diphenylpenta-2,4-dienoic acid]	84 ± 1.4%	4 ± 0.02%	3 ± 0.0%	5 ± 0.0%	6 ± 0.04%	> 240 µM	> 240 µM	145 to 147 °C
O=C(O)C=CC=Cc1ccccc1 [Compound 3ii, 5-Phenylpenta-2,4-dienoic acid]	30 ± 1.0%	11 ± 0.06%	7 ± 0.0%	20 ± 0.2%	16 ± 0.05%	240 ± 1.8 µM	> 240 µM	–
O=C(O)C(=CC(Br)=Cc1ccccc1)c1ccccc1 [Compound 4i, 4-Bromo-2,5-diphenylpenta-2,4-dienoic acid]	88 ± 1.8%	7 ± 0.03%	4 ± 0.01%	8 ± 0.03%	5 ± 0.0%	92 ± 1.3 µM	210 ± 1 µM	135 to 136 °C
O=C(O)C=CC(Br)=Cc1ccccc1 [Compound 4ii, 4-Bromo-5-phenylpenta-2,4-dienoic acid]	63 ± 1.1%	17 ± 0.02%	13 ± 0.05%	30 ± 0.9%	29 ± 0.6%	24 ± 0.6 µM	173.5 ± 1.4 µM	169 to 171 °C
